# US8796463B2 (priority 2009, dated 2014)
# Where “and” joins values, the source holds several entries; their conditions need not be identical. Identical values can stand only once.
# How the values were obtained:
# [1] = tested on: Pythium ultimum; test: Pythium test (cotton) / seed treatment; type: in vivo; settings: 10 g/dt seed of active ingredient, emerged seedlings after 7 days
# Description: Pythium Test (Cotton)/Seed Treatment
# The test is performed under greenhouse conditions.
# Cotton seeds, treated with the active compound or compound combinations, solved in N-methyl-2-pyrrolidon and diluted with water to the desired dosages, were sown in 6*6 cm pots containing 4 cm of a 1:1 mix of steamed field soil and sand.
# Perlite was incubated with mycelium fragments of Pythium ultimum. 1 ml of infected perlite was scattered between the treated cotton seeds. Seeds were then covered by light expanded clay aggregate. Pots were incubated in the greenhouse 7 days at 20° C. and 80% relative humidity.
# Assessment consisted of counting of emerged seedlings. 0% means an efficacy which corresponds to that of the control, while an efficacy of 100% means that all seedlings have emerged.
# [2] = log P by HPLC on reversed phase columns (EEC directive 79/831 Annex V.A8); type: physicochemical; settings: for chromatographic logP: reversed phase HPLC column, pH 2.7, formic acid eluent, reported in preparation example, read-out: log P(HCOOH)
# Description: Measurement of log P values was performed according EEC directive 79/831 Annex V.A8 by HPLC (High Performance Liquid Chromatography) on reversed phase columns with the following method:
# measurement of LC-MS was done at pH 2.7 with 0.1% formic acid in water and with acetonitrile (contains 0.1% formic acid) as eluent with a linear gradient from 10% acetonitrle to 95% acetonitrile.
# Calibration was done with not branched alkan2-ones (with 3 to 16 carbon atoms) with known log P-values (measurement of log P values using retention times with linear interpolation between successive alkanones). lambda-maX-values were determined using UV-spectra from 200 nm to 400 nm and the peak values of the chromatographic signals.
# [3] = tested on: Plasmopara viticola; test: Plasmopara test (grapevines) / preventive; type: in vivo; settings: preventive spray, 10 ppm of active ingredient, evaluated 6 days after inoculation
# Description: Plasmopara Test (Grapevines)/Preventive
# To produce a suitable preparation of active compound, 1 part by weight of active compound is mixed with the stated amounts of solvent and emulsifier, and the concentrate is diluted with water to the desired concentration.
# To test for preventive activity, young plants are sprayed with the preparation of active compound at the stated rate of application. After the spray coating has dried on, the plants are inoculated with an aqueous spore suspension of Plasmopara viticola and then remain for 1 day in an incubation cabinet at approximately 20° C. and a relative atmospheric humidity of 100%. The plant is subsequently placed for 4 days in a greenhouse at approximately 21° C. and a relative atmospheric humidity of approximately 90%. The plants are then misted and placed for 1 day in an incubation cabinet.
# The test is evaluated 6 days after the inoculation. 0% means an efficacy which corresponds to that of the untreated control, while an efficacy of 100% means that no disease is observed.
# [4] = tested on: Phytophthora infestans; type: in vivo; settings: tomato, preventive spray, 100 ppm of active ingredient, evaluated 7 days after inoculation
Structure (SMILES),Efficacy % [1],chromatographic logP [2],Efficacy % [3],Efficacy % [4],"logp ([2]; pH 2.7, 0.1% formic acid in water / acetonitrile gradient)"
"Cn1nnnc1C(=NOCc1csc(NC(=O)C2CCc3ccccc3O2)n1)c1ccccc1 (stereo not drawn) [Example 10, N-{4-[({[(1-methyl-1H-tetrazol-5-yl)(phenyl)methylene]amino}oxy)methyl]-1,3-thiazol-2-yl}chromane-2-carboxamide]",86%,3.78,100%,100%,
Cn1nnnc1C(=NOCc1csc(NC(=O)C2COc3ccccc3O2)n1)c1ccccc1 (stereo not drawn) [Example 11],77%,,98%,95%,3.46
"Cn1nnnc1C(=NOCc1cccc(NC(=O)C2Cc3ccccc3O2)n1)c1ccccc1 (stereo not drawn) [Example 41, N-{6-[({[(1-methyl-1H-tetrazol-5-yl)(phenyl)methylene]amino}oxy)methyl]pyridin-2-yl}-2,3-dihydro-1-benzofuran-2-carboxamide]",92%,3.67,97% and 91%,89%,
